The source of these data is patent US20060142254A1, “Antipyretic preparation containing xylitol” (ROQUETTE FRERES, priority 2001, published 2006).

Assay [1] relates to rabbits having received a dose of endotoxins equal to 12 EU/kg. Description: Pyrogen test in rabbits: lowering of the body temperature increase caused by intravenously injected endotoxins. The format is in vivo, rabbit. Particulars: xylitol 1.5 g/kg, ASPEGIC 100 mg/kg where present; for Difference compared with the positive control of contamination (%): lowering of the endotoxin-induced temperature increase versus Batch 2, endotoxins 12 EU/kg i.v., significant when greater than 5%; for Temperature increase (° C.): mean temperature difference, 3 rabbits per batch, endotoxins 12 EU/kg intravenously. The text has this:
Specifically, the pyrogen test in rabbits is the test described in the European Pharmacopoeia for verifying, in vivo, the apyrogenicity of certain molecules intended to be administered parenterally.
Thus, the applicant company, a producer of molecules intended to be administered parenterally, therefore used this test, which it has perfected, under the conditions described in the European Pharmacopoeia, in order to determine the body temperature-lowering effects of xylitol alone, and of xylitol combined with an antipyretic.
The experiment is carried out with batches of laboratory animals, in this instance here, rabbits.
The solutions to be injected are prepared in sterile water (water for injectable preparation—AGUETTANT).
The bottles of endotoxins (control standard Entotoxin or CSE—ENDOSAFE) contain 5 ml of endotoxins at 30 EU/ml with 120 ml of water for injectable preparation.
The contamination is calculated so as to observe a pyrogenic shock in the rabbit. This contamination is produced by intravenously injecting endotoxins in a proportion of 1.2 EU/ml, i.e. 12 EU/kg.
The antipyretic agent, in this instance aspirin, is prepared extemporaneously. 6.6 ml are added to 125 ml of endotoxins so as to obtain a dose equivalent to 100 mg/kg. The aspirin chosen is injectable ASPEGIC® (DL-lysine acetyl salicylate), manufactured by Laboratoires SYNTHELABO (LE PLESSIS ROBINSON), packed in proportion of 6 bottles of 2 g of powder and 6 vials of 5 ml of water for injectable preparation, for extemporaneous dissolution.
The xylitol is a batch of apyrogenic XYLISORB® manufactured by the applicant company. Apyrogenic dextrose monohydrate (marketed under the trademark LYCADEX® PF by the applicant company) is used as a control.
The rabbits are injected with a solution of xylitol at 150 g/l with water for injectable solution contaminated or not contaminated with the endotoxins. Five experiments are carried out with 3 rabbits per batch.

The test system of assay [2] is healthy rabbit. Particulars: intravenous administration; cited from earlier work.

As to `CC(=O)Oc1ccccc1C(=O)O` (racemic) [Batch 3, DL-lysine acetyl salicylate], in assay [1], the “Difference compared with the positive control of contamination (%)” value was found to be 46% and the “Temperature increase (° C.)” value stood at 1.57 °C.
As to `OC[C@@H](O)[C@H](O)[C@@H](O)CO` [Batch 4, xylitol], in assay [1], the “Difference compared with the positive control of contamination (%)” value came to 7.5% and the “Temperature increase (° C.)” value was 2.73 °C. The “effect on body temperature of the laboratory animal” value in assay [2] is recorded as “lowers the body temperature”.
Take methylephedrine: the “effect on body temperature of the laboratory animal” value in assay [2] was “lowers the body temperature”.
